{"source": "paper PMC11233931", "about": "“Remodeling tumor‐associated macrophage for anti‐cancer effects by rational design of irreversible inhibition of mitogen‐activated protein kinase‐activated protein kinase 2” (MedComm, 2024)", "experiment_in_all_cases": "Eurofins kinase selectivity profile against 380 other human recombinant kinases (Table S2)", "assay_type_in_all_cases": "biochemical", "key": {"[1]": {"molecular_target": "T1, 380 human recombinant protein kinases (Homo sapiens, UniProt Q92772)", "T1 construct": "purchased Eurofins (Celle Lévescault)", "T1 sequence (Q92772 1-493)": "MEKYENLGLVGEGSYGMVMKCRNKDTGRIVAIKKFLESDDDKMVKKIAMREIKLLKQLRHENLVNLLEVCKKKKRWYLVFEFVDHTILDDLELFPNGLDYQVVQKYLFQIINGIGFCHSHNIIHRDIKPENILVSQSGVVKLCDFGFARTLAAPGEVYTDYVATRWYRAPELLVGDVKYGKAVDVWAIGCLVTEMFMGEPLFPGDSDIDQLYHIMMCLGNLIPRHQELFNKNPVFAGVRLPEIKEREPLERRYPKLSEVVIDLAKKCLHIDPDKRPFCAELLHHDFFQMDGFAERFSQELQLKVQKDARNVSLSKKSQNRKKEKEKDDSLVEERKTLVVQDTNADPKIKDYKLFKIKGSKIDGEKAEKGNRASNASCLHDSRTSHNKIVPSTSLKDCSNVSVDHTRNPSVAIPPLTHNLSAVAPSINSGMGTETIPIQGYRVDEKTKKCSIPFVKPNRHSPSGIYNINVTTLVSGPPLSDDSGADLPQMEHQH", "settings": "CDKL2(h), read-out: Inhibition rate", "procedure,_shortened": "(§1)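 Off-target profiling: one compound assayed by a commercial provider over 380 recombinant human protein kinases at various concentrations.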"}, "[2]": {"molecular_target": "T2, 380 human recombinant protein kinases (Homo sapiens, UniProt Q05513)", "T2 construct": "purchased Eurofins (Celle Lévescault)", "T2 sequence (Q05513 1-592)": "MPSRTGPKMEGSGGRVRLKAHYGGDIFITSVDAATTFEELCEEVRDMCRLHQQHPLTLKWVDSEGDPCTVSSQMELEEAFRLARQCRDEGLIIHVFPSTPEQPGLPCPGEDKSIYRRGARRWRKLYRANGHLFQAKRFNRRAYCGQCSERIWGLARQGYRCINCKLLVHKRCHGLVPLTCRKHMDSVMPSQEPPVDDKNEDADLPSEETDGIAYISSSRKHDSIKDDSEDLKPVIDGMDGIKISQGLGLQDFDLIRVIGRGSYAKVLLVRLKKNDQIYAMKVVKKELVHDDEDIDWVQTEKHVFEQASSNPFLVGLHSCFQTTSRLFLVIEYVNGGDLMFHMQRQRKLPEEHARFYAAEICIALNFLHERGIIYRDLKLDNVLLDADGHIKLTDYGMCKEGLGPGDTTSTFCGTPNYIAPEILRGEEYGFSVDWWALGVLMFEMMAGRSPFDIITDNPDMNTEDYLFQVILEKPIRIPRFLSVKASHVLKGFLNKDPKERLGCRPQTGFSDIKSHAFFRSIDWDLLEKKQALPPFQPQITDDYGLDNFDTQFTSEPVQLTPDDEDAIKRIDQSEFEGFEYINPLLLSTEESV", "settings": "PKCζ(h), read-out: Inhibition rate", "procedure,_shortened": "as §1"}, "[3]": {"molecular_target": "T3, 380 human recombinant protein kinases (Homo sapiens, UniProt O00238)", "T3 construct": "purchased Eurofins (Celle Lévescault)", "T3 sequence (O00238 14-502)": "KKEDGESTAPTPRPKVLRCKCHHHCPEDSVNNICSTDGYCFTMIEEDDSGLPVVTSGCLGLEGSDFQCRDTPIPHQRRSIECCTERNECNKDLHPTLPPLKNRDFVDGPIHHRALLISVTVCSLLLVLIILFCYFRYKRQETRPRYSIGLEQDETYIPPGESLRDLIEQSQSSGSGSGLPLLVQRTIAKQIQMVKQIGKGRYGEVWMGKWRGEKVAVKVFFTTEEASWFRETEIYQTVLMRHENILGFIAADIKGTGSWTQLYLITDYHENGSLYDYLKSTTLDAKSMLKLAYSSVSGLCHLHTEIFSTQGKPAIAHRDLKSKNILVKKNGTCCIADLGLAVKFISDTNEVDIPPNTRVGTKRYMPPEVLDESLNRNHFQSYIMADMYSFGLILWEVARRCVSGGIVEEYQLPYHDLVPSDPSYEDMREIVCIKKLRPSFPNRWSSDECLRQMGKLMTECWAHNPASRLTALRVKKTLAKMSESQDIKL", "settings": "ALK6(h), read-out: Inhibition rate", "procedure,_shortened": "as §1"}, "[4]": {"molecular_target": "T4, 380 human recombinant protein kinases (Homo sapiens, UniProt Q9H1R3)", "T4 construct": "purchased Eurofins (Celle Lévescault)", "T4 sequence (Q9H1R3 whole entry)": "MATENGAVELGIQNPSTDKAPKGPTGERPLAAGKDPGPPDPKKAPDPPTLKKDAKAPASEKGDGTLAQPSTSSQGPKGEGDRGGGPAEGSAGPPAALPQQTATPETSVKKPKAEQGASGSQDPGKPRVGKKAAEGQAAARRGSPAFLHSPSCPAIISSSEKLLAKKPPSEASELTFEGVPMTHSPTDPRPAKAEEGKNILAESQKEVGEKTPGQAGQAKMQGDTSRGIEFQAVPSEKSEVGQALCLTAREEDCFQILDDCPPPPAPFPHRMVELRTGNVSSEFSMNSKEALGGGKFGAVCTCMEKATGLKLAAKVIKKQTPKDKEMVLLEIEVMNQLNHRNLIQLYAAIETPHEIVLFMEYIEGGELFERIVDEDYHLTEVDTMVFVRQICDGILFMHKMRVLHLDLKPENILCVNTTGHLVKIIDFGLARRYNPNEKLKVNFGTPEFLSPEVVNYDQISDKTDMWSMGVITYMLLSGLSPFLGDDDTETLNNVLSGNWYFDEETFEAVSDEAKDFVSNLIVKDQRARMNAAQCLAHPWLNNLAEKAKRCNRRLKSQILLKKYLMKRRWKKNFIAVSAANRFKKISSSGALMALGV", "settings": "MYLK2(h), read-out: Inhibition rate", "procedure,_shortened": "as §1"}, "[5]": {"molecular_target": "T5, 380 human recombinant protein kinases (Homo sapiens, UniProt P07333)", "T5 construct": "purchased Eurofins (Celle Lévescault)", "T5 sequence (P07333 20-972)": "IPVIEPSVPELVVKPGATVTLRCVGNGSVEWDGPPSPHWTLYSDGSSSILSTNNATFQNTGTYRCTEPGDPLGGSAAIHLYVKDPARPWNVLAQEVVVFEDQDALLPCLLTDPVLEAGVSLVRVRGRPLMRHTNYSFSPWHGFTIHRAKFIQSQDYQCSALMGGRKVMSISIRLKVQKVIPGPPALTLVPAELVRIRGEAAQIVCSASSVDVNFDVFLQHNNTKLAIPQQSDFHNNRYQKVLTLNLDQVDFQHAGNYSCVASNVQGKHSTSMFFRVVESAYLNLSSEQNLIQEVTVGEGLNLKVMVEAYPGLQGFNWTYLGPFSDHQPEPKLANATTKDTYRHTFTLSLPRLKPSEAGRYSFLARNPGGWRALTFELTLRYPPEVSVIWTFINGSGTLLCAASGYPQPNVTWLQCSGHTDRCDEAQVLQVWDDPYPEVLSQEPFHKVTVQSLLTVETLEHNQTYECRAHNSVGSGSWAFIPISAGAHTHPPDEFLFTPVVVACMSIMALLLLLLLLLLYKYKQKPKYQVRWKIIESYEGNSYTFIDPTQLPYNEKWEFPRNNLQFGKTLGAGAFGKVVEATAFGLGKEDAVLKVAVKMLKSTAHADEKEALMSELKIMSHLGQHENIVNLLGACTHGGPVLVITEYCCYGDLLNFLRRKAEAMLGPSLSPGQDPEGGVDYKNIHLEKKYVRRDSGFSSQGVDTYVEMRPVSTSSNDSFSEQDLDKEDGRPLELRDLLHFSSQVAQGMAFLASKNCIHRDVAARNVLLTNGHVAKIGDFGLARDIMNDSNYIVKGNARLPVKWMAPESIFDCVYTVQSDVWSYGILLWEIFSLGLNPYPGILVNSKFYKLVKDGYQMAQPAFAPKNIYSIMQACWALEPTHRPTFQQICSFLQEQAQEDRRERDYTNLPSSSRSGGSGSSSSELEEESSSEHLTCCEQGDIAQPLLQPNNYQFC", "settings": "Fms(h), read-out: Inhibition rate", "procedure,_shortened": "as §1"}, "[6]": {"molecular_target": "T6, 380 human recombinant protein kinases (Homo sapiens, UniProt Q9H3Y6)", "T6 construct": "purchased Eurofins (Celle Lévescault)", "T6 sequence (Q9H3Y6 whole entry)": "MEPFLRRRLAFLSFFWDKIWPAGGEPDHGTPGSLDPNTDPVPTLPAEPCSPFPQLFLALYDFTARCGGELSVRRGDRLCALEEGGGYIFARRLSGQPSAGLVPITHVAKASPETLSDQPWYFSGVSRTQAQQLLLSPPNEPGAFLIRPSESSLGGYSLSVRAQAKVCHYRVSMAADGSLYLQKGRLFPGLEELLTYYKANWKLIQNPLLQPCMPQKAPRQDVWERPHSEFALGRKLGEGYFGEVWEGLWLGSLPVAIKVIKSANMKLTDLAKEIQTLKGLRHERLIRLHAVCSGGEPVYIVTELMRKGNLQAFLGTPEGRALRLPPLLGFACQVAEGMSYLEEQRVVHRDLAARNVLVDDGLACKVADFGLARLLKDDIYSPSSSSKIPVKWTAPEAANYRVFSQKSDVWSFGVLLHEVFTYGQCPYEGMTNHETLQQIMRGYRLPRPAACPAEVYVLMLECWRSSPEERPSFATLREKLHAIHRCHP", "settings": "SRMS(h), read-out: Inhibition rate (%)", "procedure,_shortened": "as §1"}, "[7]": {"molecular_target": "T7, 380 human recombinant protein kinases (Homo sapiens, UniProt P36888)", "T7 construct": "purchased Eurofins (Celle Lévescault)", "T7 sequence (P36888 27-993)": "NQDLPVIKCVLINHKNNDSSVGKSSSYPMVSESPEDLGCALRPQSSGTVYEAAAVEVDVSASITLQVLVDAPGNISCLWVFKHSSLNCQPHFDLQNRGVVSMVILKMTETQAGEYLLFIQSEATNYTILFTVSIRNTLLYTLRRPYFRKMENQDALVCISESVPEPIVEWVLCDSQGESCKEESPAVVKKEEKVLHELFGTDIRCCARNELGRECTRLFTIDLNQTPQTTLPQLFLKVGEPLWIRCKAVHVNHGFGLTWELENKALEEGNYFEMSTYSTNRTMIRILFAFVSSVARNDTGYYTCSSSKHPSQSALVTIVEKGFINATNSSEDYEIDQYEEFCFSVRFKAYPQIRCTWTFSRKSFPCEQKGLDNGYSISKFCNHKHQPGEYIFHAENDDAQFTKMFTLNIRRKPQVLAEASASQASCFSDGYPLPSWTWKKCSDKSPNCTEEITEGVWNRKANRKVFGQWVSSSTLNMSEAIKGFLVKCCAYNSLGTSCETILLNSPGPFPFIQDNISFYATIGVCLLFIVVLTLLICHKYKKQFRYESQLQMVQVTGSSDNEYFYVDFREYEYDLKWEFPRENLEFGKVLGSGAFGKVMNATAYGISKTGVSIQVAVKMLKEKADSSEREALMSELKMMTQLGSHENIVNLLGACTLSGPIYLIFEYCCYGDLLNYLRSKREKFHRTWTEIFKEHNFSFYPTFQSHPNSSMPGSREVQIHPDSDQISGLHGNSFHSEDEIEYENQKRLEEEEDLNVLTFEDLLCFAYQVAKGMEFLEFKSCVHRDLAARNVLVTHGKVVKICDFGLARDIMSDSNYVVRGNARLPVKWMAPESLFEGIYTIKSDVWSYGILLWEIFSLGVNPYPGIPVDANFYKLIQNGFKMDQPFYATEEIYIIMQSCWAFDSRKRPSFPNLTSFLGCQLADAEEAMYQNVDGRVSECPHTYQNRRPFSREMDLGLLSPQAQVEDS", "settings": "Flt3(h), read-out: Inhibition rate", "procedure,_shortened": "as §1"}}, "data": [{"smiles": "C=CC(=O)Nc1cc(-c2cc(-c3cc4c([nH]3)CCNC4=O)ccn2)ccc1OC(F)(F)F", "note": "[compound 11]", "values": [{"measurement": "inhibition at 0.01 µM", "setting": "[1]; 10 nM", "value": 31, "unit": "%"}, {"measurement": "inhibition at 0.1 µM", "setting": "[1]; 100 nM", "value": 50, "unit": "%"}, {"measurement": "inhibition at 1 µM", "setting": "[1]; 1000 nM", "value": 54, "unit": "%"}, {"measurement": "inhibition at 0.01 µM", "setting": "[2]; 10 nM", "value": -5, "unit": "%"}, {"measurement": "inhibition at 0.1 µM", "setting": "[2]; 100 nM", "value": -4, "unit": "%"}, {"measurement": "inhibition at 1 µM", "setting": "[2]; 1000 nM", "value": -8, "unit": "%"}, {"measurement": "inhibition at 0.01 µM", "setting": "[3]; 10 nM", "value": -13, "unit": "%"}, {"measurement": "inhibition at 0.1 µM", "setting": "[3]; 100 nM", "value": 4, "unit": "%"}, {"measurement": "inhibition at 1 µM", "setting": "[3]; 1000 nM", "value": 6, "unit": "%"}, {"measurement": "inhibition at 0.01 µM", "setting": "[4]; 10 nM", "value": -2, "unit": "%"}, {"measurement": "inhibition at 0.1 µM", "setting": "[4]; 100 nM", "value": 6, "unit": "%"}, {"measurement": "inhibition at 1 µM", "setting": "[4]; 1000 nM", "value": 29, "unit": "%"}, {"measurement": "inhibition at 0.01 µM", "setting": "[5]; 10 nM", "value": -8, "unit": "%"}, {"measurement": "inhibition at 0.1 µM", "setting": "[5]; 100 nM", "value": -9, "unit": "%"}, {"measurement": "inhibition at 1 µM", "setting": "[5]; 1000 nM", "value": -6, "unit": "%"}, {"measurement": "inhibition at 0.01 µM", "setting": "[6]; 10 nM", "value": 1, "unit": "%"}, {"measurement": "inhibition at 0.1 µM", "setting": "[6]; 100 nM", "value": 10, "unit": "%"}, {"measurement": "inhibition at 1 µM", "setting": "[6]; 1000 nM", "value": 7, "unit": "%"}, {"measurement": "inhibition at 0.01 µM", "setting": "[7]; 10 nM", "value": -12, "unit": "%"}, {"measurement": "inhibition at 0.1 µM", "setting": "[7]; 100 nM", "value": -5, "unit": "%"}, {"measurement": "inhibition at 1 µM", "setting": "[7]; 1000 nM", "value": 24, "unit": "%"}]}]}
